# Results as given in ChEMBL document CHEMBL1201862, “PubChem BioAssay data set” (2004).
# Activity calls are given as the source filed them.
# Experiments:
# [1] = HEK-293T cell viability reduction – luminescence, B-cell screen hits, cytotoxicity control for BCR NF-kB inhibitor project, dose response (AID 489021); format: functional, cell-based;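 note: HEK-293T cells carrying an NF-kB luciferase reporter; cells exposed to compound for about 14 hours before viability readout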
# [2] = target: T1, Streptokinase A (Streptococcus pyogenes serotype M1, UniProt P10520); assay: viability-normalized secreted streptokinase activity reduction – plasminogen activation absorbance, OD405, dose response (AID 1914); format: functional, Streptococcus pyogenes M1 GAS;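 note: secreted streptokinase activity via plasminogen activation per viability signal from cell pellet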
# T1 sequence (P10520 whole entry): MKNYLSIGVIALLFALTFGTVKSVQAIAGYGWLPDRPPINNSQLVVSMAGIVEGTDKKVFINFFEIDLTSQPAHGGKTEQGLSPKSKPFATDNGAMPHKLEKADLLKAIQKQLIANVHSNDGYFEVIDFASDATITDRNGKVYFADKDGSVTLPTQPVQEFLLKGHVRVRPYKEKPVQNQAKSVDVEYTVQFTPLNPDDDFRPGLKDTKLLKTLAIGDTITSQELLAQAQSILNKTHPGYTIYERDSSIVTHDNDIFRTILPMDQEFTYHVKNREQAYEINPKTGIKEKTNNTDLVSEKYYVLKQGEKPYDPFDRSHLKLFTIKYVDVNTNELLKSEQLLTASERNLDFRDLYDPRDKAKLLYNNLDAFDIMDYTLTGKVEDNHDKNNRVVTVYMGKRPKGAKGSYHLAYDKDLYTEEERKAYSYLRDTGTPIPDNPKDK
# [3] = Luminescence Cell-Based Dose Retest to Confirm Inhibitors of Cancer Stem Cells. [Related pubchem assays (depositor defined):AID2717, AID2721]; format: functional; details: Homo sapiens
# [4] = target: Heat shock protein HSP 90-alpha (Homo sapiens, UniProt P07900); format: functional, organism-based
# [5] = tested on: Streptococcus sp. 'group A'; assay: Streptococcus pyogenes SK(-)GAS viability under kanamycin – luminescence, BacTiterGlo, confirmation, counter-screen for streptokinase expression inhibitor project, dose response (AID 1900); format: functional, organism-based
# [6] = tested on: Streptococcus; assay: GAS UMAA2166 growth inhibition – luminescence, BacTiterGlo, counter-screen for streptokinase expression inhibitor project, dose response (AID 1915); format: functional, organism-based;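 note: potency for reduction of bacterial viability or growth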
# [7] = microbe, parasite or virus in culture; format: functional; details: Mycobacterium tuberculosis
# [8] = target: T2, Coagulation factor XII (Homo sapiens, UniProt P00748); format: functional;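 note: activated factor XIIa alpha cleaving a fluorogenic AMC peptide substrate; inhibitor potency from loss of enzyme activity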
# T2 sequence (P00748 whole entry): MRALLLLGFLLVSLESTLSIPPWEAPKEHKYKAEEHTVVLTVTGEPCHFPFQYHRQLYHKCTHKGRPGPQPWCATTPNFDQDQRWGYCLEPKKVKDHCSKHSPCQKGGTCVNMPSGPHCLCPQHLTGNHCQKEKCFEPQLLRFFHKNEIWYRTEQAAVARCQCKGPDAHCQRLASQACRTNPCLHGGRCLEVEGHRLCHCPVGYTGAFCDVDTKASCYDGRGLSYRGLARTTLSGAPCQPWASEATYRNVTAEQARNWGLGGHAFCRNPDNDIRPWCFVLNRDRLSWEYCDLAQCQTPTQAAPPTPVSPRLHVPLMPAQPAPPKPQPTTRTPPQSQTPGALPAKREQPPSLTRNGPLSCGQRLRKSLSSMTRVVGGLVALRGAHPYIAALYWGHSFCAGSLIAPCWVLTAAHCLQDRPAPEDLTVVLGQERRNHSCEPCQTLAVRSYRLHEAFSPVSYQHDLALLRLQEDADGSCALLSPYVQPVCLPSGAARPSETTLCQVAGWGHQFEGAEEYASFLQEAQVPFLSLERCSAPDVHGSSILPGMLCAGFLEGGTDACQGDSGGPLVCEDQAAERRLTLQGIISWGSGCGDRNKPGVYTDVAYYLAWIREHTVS
# [9] = target: Cytochrome P450 3A4 (Homo sapiens, UniProt P08684);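 note: CYP3A4 tested as one member of a cytochrome P450 panel screen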
# Sequence of Cytochrome P450 3A4 (P08684 whole entry): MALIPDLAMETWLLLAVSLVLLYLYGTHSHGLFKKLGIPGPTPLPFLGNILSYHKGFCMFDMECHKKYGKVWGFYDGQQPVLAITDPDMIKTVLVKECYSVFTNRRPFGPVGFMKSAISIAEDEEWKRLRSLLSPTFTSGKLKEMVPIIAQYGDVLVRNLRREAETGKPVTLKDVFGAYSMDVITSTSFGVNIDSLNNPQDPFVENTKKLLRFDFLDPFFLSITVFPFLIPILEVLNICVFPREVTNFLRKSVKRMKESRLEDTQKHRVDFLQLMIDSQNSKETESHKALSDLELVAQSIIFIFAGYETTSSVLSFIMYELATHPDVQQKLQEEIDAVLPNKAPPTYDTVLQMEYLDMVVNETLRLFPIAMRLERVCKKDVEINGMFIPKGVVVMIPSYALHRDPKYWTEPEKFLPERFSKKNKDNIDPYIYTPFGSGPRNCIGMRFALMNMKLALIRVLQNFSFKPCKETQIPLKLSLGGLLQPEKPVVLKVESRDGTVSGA
# [10] = target: Cytochrome P450 2C9 (Homo sapiens, UniProt P11712)
# Sequence of Cytochrome P450 2C9 (P11712 whole entry): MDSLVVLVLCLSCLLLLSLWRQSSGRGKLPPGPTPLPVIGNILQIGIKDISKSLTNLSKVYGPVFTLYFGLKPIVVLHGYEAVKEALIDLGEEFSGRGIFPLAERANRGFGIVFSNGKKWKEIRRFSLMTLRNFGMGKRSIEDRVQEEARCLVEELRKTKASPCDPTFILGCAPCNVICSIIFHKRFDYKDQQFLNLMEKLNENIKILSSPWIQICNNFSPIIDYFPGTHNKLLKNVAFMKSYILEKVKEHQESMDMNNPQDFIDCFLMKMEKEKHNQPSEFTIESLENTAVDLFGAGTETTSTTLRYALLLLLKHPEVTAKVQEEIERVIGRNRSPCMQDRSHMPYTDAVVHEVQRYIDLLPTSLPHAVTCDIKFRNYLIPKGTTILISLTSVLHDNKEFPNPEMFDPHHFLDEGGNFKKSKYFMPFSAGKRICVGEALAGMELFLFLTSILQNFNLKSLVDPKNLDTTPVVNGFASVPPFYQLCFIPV
# [11] = target: T3, Cytochrome P450 1A2 (Homo sapiens, UniProt P05177);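 note: PubChem cytochrome P450 panel assay, CYP1A2 panel member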
# T3 sequence (P05177 whole entry): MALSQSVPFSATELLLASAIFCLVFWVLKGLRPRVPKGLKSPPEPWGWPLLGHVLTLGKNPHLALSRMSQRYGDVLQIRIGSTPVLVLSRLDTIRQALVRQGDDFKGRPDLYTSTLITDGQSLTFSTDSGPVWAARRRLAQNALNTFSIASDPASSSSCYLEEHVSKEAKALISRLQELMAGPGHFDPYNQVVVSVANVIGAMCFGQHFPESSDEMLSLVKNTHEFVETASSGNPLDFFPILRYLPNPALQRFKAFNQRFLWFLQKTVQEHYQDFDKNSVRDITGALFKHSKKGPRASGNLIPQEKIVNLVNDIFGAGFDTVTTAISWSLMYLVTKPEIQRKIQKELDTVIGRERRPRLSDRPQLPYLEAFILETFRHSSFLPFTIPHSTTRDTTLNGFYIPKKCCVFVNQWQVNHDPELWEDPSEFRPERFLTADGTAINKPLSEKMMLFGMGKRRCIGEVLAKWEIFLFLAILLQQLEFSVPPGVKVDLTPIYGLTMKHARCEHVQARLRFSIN
# [12] = HGIII-sPLA2 enzyme inhibition potency – biochemical, QFRET, IC50, dose response (AID 743457);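 note: green fluorescence rise as the enzyme cleaves BODIPY PC-A2 in liposomes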
# [13] = target: 5-hydroxytryptamine receptor 2A (Mus musculus, UniProt P35363); format: functional, cell-based;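 note: CHO-K1 cells with tagged receptor and beta-arrestin; agonist potency measured as compound-induced activation of the receptor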
# Sequence of 5-hydroxytryptamine receptor 2A (P35363 whole entry): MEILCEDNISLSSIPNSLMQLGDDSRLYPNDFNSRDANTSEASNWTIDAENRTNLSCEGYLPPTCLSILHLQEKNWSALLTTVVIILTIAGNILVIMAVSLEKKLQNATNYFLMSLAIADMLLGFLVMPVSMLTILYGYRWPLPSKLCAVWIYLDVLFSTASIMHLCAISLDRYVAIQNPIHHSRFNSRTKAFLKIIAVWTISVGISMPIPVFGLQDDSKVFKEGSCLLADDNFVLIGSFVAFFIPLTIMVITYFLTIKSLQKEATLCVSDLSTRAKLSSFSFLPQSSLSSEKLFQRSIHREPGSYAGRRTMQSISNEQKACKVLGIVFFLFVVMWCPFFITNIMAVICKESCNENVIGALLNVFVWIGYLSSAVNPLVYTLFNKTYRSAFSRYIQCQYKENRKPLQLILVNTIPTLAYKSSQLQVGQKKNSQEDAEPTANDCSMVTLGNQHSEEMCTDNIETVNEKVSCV
# [14] = target: Mu-type opioid receptor (Homo sapiens, UniProt P35372); format: functional, cell-based;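 note: U2OS cells with beta-arrestin recruitment to OPRM1 by beta-gal complementation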
# Sequence of Mu-type opioid receptor (P35372 whole entry): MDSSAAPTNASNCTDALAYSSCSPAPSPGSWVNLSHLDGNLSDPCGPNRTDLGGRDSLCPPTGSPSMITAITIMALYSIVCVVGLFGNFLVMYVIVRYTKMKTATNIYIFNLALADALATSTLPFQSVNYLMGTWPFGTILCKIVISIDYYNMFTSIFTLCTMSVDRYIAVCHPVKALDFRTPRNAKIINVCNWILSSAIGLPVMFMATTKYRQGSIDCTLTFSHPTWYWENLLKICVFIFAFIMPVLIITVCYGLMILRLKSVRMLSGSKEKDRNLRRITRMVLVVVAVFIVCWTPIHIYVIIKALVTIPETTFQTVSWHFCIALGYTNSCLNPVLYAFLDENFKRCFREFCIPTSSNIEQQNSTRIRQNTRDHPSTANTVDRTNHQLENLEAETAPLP
# [15] = non-specific 3'UTR reporter inhibition in Clone20-Shn3RL – cell-based, Renilla luciferase, cherry-picked, counter-screen for Shn3 inhibitor project, dose response (AID 624133); format: functional
# [16] = reduction of Shn3 3'UTR-driven luciferase in osteoblasts – cell-based, Clone20 osteoblasts, firefly luciferase, cherry-picked, dose response (AID 624132); format: functional;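 note: firefly luciferase luminescence from reporter carrying the Shn3 3'UTR in osteoblasts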
# [17] = loss of viability in HepG2 cells – cell-based, CellTiter-Glo, cherry-picked, cytotoxicity control for Shn3 inhibitor project, dose response (AID 624134); format: functional
# [18] = cells; format: functional
# [19] = HIV-1 AD8 envelope cell-cell fusion blockers – cherry-pick, dose response (AID 652062); format: functional, cell-based;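 note: luciferase signal from cell-cell fusion driven by HIV-1 clade B AD8 Env; potency is for inhibitors of fusion seen as a drop in luminescence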
# [20] = blockers of HIV-1 ZM109 envelope-driven cell-cell fusion – HeLa effector, CEM target cells, luciferase, cherry-pick, dose response (AID 652058); format: functional, cell-based;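 note: luciferase signal from HIV-1 Env mediated cell-cell fusion of effector and target cells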
# [21] = target: T4, Mannose-6-phosphate isomerase (Homo sapiens, UniProt P34949); assay: MPI inhibition at elevated mannose 6-phosphate – biochemical, fluorescence intensity, high mannose 6-phosphate, primary screen (AID 1220)
# T4 sequence (P34949 whole entry): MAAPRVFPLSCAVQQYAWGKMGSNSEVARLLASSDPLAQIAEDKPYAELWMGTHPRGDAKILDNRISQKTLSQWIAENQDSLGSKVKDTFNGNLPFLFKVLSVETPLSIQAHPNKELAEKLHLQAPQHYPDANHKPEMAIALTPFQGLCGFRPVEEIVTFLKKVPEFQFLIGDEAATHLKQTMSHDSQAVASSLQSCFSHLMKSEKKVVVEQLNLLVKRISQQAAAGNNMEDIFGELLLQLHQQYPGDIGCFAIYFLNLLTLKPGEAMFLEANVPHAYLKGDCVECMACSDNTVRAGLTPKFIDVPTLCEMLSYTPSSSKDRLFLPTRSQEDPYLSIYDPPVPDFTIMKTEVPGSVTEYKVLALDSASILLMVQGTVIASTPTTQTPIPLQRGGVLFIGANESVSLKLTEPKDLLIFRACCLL
# [22] = target: T5, Corticotropin-releasing factor receptor 2/Corticotropin-releasing factor-binding protein (Homo sapiens, UniProt P24387+Q13324); assay: activators of CRF receptor 2 with binding protein – uHTS hits, confirmation (AID 602473); format: functional; details: read-out: EC50_Mean
# T5 sequence (Q13324 whole entry): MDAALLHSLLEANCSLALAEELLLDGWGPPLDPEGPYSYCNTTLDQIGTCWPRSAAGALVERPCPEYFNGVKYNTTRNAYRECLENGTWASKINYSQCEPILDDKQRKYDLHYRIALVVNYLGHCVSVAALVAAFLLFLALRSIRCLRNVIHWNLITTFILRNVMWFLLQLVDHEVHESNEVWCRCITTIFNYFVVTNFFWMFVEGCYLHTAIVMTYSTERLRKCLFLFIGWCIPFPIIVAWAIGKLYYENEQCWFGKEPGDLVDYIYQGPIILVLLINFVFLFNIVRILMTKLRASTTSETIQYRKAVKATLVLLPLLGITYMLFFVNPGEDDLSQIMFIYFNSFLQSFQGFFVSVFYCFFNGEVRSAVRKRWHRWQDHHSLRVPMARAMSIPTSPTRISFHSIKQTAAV
# T5 sequence (P24387 whole entry): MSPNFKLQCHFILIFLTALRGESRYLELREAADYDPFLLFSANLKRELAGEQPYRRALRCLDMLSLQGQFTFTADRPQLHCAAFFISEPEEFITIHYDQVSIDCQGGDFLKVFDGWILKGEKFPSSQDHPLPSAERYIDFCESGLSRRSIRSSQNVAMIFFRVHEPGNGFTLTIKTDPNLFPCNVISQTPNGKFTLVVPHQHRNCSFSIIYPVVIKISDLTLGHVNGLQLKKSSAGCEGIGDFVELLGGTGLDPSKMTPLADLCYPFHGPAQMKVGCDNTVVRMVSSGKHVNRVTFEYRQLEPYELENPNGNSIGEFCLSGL
# [23] = blockers of CRF-binding protein–CRF-R2 complex – cell-based, uHTS hits, 384-well, dose response (AID 651639); format: functional, Homo sapiens; details: read-out: IC50_Mean
# [24] = target: T5, Corticotropin-releasing factor receptor 2/Corticotropin-releasing factor-binding protein; assay: Dose Response confirmation of uHTS hits for small molecule antagonists of the CRF-binding protein and CRF-R2 receptor complex.; format: functional; details: read-out: IC50_Mean
# [25] = blockers of HIV-1 envelope-mediated cell-cell fusion – cherry-pick, dose response (AID 652057); format: functional, cell-based
# [26] = off-target signal loss in HeLa-CEM21 co-culture – HeLa F-luc CTL cells, cherry-picked, counter-screen for HIV-1 Env fusion inhibitor project, dose response (AID 652040); format: functional, cell-based;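 note: potency for signal decrease marking cytotoxic or nonspecific inhibition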
# [27] = target: FAD-linked sulfhydryl oxidase ALR (Homo sapiens, UniProt P55789); assay: ALR-catalysed DTT oxidation blockers – biochemical, H2O2 detection, luminescence, cherry-pick, dose response (AID 493248)
# Sequence of FAD-linked sulfhydryl oxidase ALR (P55789 whole entry): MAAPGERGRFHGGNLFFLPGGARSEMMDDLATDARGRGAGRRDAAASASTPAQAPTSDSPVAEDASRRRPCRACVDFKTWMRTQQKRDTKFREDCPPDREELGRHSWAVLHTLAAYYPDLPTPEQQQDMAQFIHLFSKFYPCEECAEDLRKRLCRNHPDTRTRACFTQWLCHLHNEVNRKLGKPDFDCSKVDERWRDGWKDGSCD
smiles,measurement,setting,value
CN1C(=O)CSc2ccc(NC(=O)N3CCN(c4ccccc4)CC3)cc21,IC50,[1],> 80 µM (inactive)
Cc1cc2c(cc1C)CSC(c1c(O)ccc3ccccc13)SC2,EC50,[2],3.41 µM (active)
same,AC50,[3],2.24 µM (active)
same,AC50,[4],4.26 µM (active)
same,EC50,[5],1.98 µM (active)
same,EC50,[6],5.67 µM (active)
same,CC50,[7],23 µM (active)
Cc1cc(C(=O)Nc2ccc(N3CCOCC3)cc2)c2ccccc2n1,IC50,[8],> 50 µM (inactive)
same,AC50,[9],15.8 µM (inconclusive)
same,AC50,[10],inconclusive
Cc1ccc(-n2cc(C(=O)c3ccc4ccccc4c3O)cn2)cc1,AC50,[11],1.41 µM (inconclusive)
same,AC50,[10],inconclusive
CCCCN=C(S)NNC(=O)c1ccc(Br)o1,IC50,[12],> 122 µM (inactive)
Oc1cc2c(cc1CN1CCN(c3ncccn3)CC1)OCO2,EC50,[13],0.106 µM (active)
same,EC50,[14],92.5 µM (inactive)
COc1c(NC(C)=O)c2ccccc2c2ccccc12,AC50,[10],inconclusive
CCOC(=O)N1CCN(C(=O)c2ccc3c(c2)N(Cc2ccc(C)cc2)CCS3)CC1,AC50,[15],2.31 µM (active)
same,AC50,[16],6 µM (active)
same,AC50,[17],> 70 µM (inactive)
Cc1ccc2c(c1)c1c3n2CCN=C3CCC1,IC50,[18],11.9 µM (active)
CC(=O)c1ccc(NC(=O)c2cc(CC(C)C)on2)cc1,IC50,[18],12 µM (active)
O=C(OCn1nnc2ccccc2c1=O)c1ccc(N2CCOCC2)c([N+](=O)[O-])c1,IC50,[18],10 µM (active)
O=C(NCc1ccccc1)c1ccc(Cl)cc1[N+](=O)[O-],AC50,[11],20 µM (inconclusive)
same,AC50,[9],22.4 µM (inconclusive)
same,AC50,[10],inconclusive
O=C(c1ccco1)N1CCN(Cc2ccccc2Br)CC1,EC50,[13],5.91 µM (active)
same,EC50,[14],92.5 µM (inactive)
O=C1C2C3C=CC(CNS(=O)(=O)c4ccccc4[N+](=O)[O-])(O3)C2C(=O)N1c1ccccc1 (stereo not drawn),AC50,[4],25.5 µM (active)
O=C(CN1CCN(Cc2ccc(Cl)cc2)C1=O)NCCCN1CCN(c2ccc(F)cc2)CC1,AC50,[19],27.3 µM (active)
same,AC50,[20],36 µM (active)
Cc1nc2c(C(=O)NCCc3ccccc3)cnn2c(O)c1Cl,IC50,[21],> 50 µM (not active)
same,EC50,[22],> 53 µM (inactive)
same,IC50,[23],> 20 µM (inactive)
same,IC50,[24],44.5 µM (active)
C[C@@]12C(=O)N(Cc3ccccc3)CC(=O)N1[C@H]1c3ccccc3OC[C@@H]1[C@@H]2c1ccccc1,AC50,[19],6.27 µM (active)
same,AC50,[20],1.68 µM (active)
same,AC50,[25],1.65 µM (active)
same,AC50,[26],2.27 µM (active)
CC(=O)N1CCC(N2CCN(c3ccccc3F)CC2)CC1,IC50,[8],> 50 µM (inactive)
same,EC50,[13],1.16 µM (active)
same,EC50,[14],92.4 µM (inactive)
CCN(CC(=O)NCc1cccs1)S(=O)(=O)c1ccc(C(C)C)cc1,AC50,[10],inconclusive
O=C(OCCC12CC3CC(CC(C3)C1)C2)c1ccc(NCc2cc(O)ccc2O)cc1,AC50,[15],5.97 µM (active)
same,AC50,[16],1.82 µM (active)
same,AC50,[17],21.7 µM (active)
C=CCN1CCc2c(cc(O)c(O)c2Cl)C(c2ccccc2)C1 (stereo not drawn),AC50,[27],4.74 µM (active)
same,EC50,[13],0.203 µM (active)
same,EC50,[14],92.4 µM (inactive)
